Test results: BindingDB's records for doi:10.1016/j.bmcl.2004.06.092 (Merck Research Laboratories, 2004)
pIC50: −log10 of the molar value.

Assays:
[1] = target: T1, Dimer of Gag-Pol polyprotein [489-587,Q496K,L499I,M525I,N526D,M535I,R546K,L552P,A560V,G562S,I573V,L579M,I582L] (Human immunodeficiency virus 1, UniProt P12497, A560V/G562S/I573V/I582L/L499I/L552P/L579M/M525I/M535I/N526D/Q496K/R546K); test: Protease Inhibition Assay
T1 construct: 489-587
Protocol: (§1) Assay of HIV protease inhibition was performed by peptide cleavage using the substrate Val-Ser-Gln-Asn-beta-naphthylalanine*Pro-Ile-Val. Products of the cleavage reaction were quantified by HPLC detection, and data were fit to nonlinear least squares equations for determination of steady-state Michaelis-Menten kinetics.

[2] = target: T2, Dimer of Gag-Pol polyprotein [489-587,Q496K] (Human immunodeficiency virus 1, UniProt P12497, Q496K); test: Protease Inhibition Assay; conditions: pH 5.5; 30 °C
T2 construct: 489-587
Protocol: as §1

SMILES | pIC50 [1] | pIC50 [2]
COc1cncc(-c2cnc(C(C)(C)N3CCN(C[C@@H](O)C[C@@H](Cc4nnco4)C(=O)N[C@H]4c5ccccc5OC[C@H]4O)[C@H](C(=O)NCC(F)(F)F)C3)o2)c1 [(2S)-1-[(2S,4S)-2-hydroxy-4-{[(3S,4S)-3-hydroxy-3,4-dihydro-2H-1-benzopyran-4-yl]carbamoyl}-4-(1,3,4-oxadiazol-2-ylmethyl)butyl]-4-{2-[5-(5-methoxypyridin-3-yl)-1,3-oxazol-2-yl]propan-2-yl}-N-(2,2,2-trifluoroethyl)piperazine-2-carboxamide] | 8.13 | 9.62
COc1cncc(-c2cnc(C(C)(C)N3CCN(C[C@@H](O)C[C@@H](Cc4nnc(C)o4)C(=O)N[C@H]4c5ccccc5OC[C@H]4O)[C@H](C(=O)NCC(F)(F)F)C3)o2)c1 [(2S)-1-[(2S,4S)-2-hydroxy-4-{[(3S,4S)-3-hydroxy-3,4-dihydro-2H-1-benzopyran-4-yl]carbamoyl}-4-[(5-methyl-1,3,4-oxadiazol-2-yl)methyl]butyl]-4-{2-[5-(5-methoxypyridin-3-yl)-1,3-oxazol-2-yl]propan-2-yl}-N-(2,2,2-trifluoroethyl)piperazine-2-carboxamide] | 7.82 | 9.40
COc1cncc(-c2cnc(C(C)(C)N3CCN(C[C@@H](O)C[C@@H](Cc4nnc(-c5ccccc5)o4)C(=O)N[C@H]4c5ccccc5OC[C@H]4O)[C@H](C(=O)NCC(F)(F)F)C3)o2)c1 [(2S)-1-[(2S,4S)-2-hydroxy-4-{[(3S,4S)-3-hydroxy-3,4-dihydro-2H-1-benzopyran-4-yl]carbamoyl}-4-[(5-phenyl-1,3,4-oxadiazol-2-yl)methyl]butyl]-4-{2-[5-(5-methoxypyridin-3-yl)-1,3-oxazol-2-yl]propan-2-yl}-N-(2,2,2-trifluoroethyl)piperazine-2-carboxamide] |  | 9.32
CCCc1nnc(C[C@H](C[C@H](O)CN2CCN(C(C)(C)c3ncc(-c4cncc(OC)c4)o3)C[C@H]2C(=O)NCC(F)(F)F)C(=O)N[C@H]2c3ccccc3OC[C@H]2O)o1 [(2S)-1-[(2S,4S)-2-hydroxy-4-{[(3S,4S)-3-hydroxy-3,4-dihydro-2H-1-benzopyran-4-yl]carbamoyl}-4-[(5-propyl-1,3,4-oxadiazol-2-yl)methyl]butyl]-4-{2-[5-(5-methoxypyridin-3-yl)-1,3-oxazol-2-yl]propan-2-yl}-N-(2,2,2-trifluoroethyl)piperazine-2-carboxamide] |  | 9.49
CC(C)(c1ncc(-c2ccc(Cl)cc2)o1)N1CCN(C[C@@H](O)C[C@@H](Cc2nnco2)C(=O)N[C@H]2c3ccccc3OC[C@H]2O)[C@H](C(=O)NCC(F)(F)F)C1 [(2S)-4-{2-[5-(4-chlorophenyl)-1,3-oxazol-2-yl]propan-2-yl}-1-[(2S,4S)-2-hydroxy-4-{[(3S,4S)-3-hydroxy-3,4-dihydro-2H-1-benzopyran-4-yl]carbamoyl}-4-(1,3,4-oxadiazol-2-ylmethyl)butyl]-N-(2,2,2-trifluoroethyl)piperazine-2-carboxamide] | 10.37 | > 10.82
Cc1nnc(C[C@H](C[C@H](O)CN2CCN(C(C)(C)c3ncc(-c4ccc(Cl)cc4)o3)C[C@H]2C(=O)NCC(F)(F)F)C(=O)N[C@H]2c3ccccc3OC[C@H]2O)o1 [(2S)-4-{2-[5-(4-chlorophenyl)-1,3-oxazol-2-yl]propan-2-yl}-1-[(2S,4S)-2-hydroxy-4-{[(3S,4S)-3-hydroxy-3,4-dihydro-2H-1-benzopyran-4-yl]carbamoyl}-4-[(5-methyl-1,3,4-oxadiazol-2-yl)methyl]butyl]-N-(2,2,2-trifluoroethyl)piperazine-2-carboxamide] | 10.22 | 10.80
CC(C)(c1ncc(-c2ccc(Cl)cc2)o1)N1CCN(C[C@@H](O)C[C@@H](Cc2nnc(-c3ccccc3)o2)C(=O)N[C@H]2c3ccccc3OC[C@H]2O)[C@H](C(=O)NCC(F)(F)F)C1 [(2S)-4-{2-[5-(4-chlorophenyl)-1,3-oxazol-2-yl]propan-2-yl}-1-[(2S,4S)-2-hydroxy-4-{[(3S,4S)-3-hydroxy-3,4-dihydro-2H-1-benzopyran-4-yl]carbamoyl}-4-[(5-phenyl-1,3,4-oxadiazol-2-yl)methyl]butyl]-N-(2,2,2-trifluoroethyl)piperazine-2-carboxamide] | 9.74 | > 10.82
CCCc1nnc(C[C@H](C[C@H](O)CN2CCN(C(C)(C)c3ncc(-c4ccc(Cl)cc4)o3)C[C@H]2C(=O)NCC(F)(F)F)C(=O)N[C@H]2c3ccccc3OC[C@H]2O)o1 [(2S)-4-{2-[5-(4-chlorophenyl)-1,3-oxazol-2-yl]propan-2-yl}-1-[(2S,4S)-2-hydroxy-4-{[(3S,4S)-3-hydroxy-3,4-dihydro-2H-1-benzopyran-4-yl]carbamoyl}-4-[(5-propyl-1,3,4-oxadiazol-2-yl)methyl]butyl]-N-(2,2,2-trifluoroethyl)piperazine-2-carboxamide] | 9.92 | > 10.82
CC(C)(c1ncc(-c2ccc(F)cc2)o1)N1CCN(C[C@@H](O)C[C@@H](Cc2nnco2)C(=O)N[C@H]2c3ccccc3OC[C@H]2O)[C@H](C(=O)NCC(F)(F)F)C1 [(2S)-4-{2-[5-(4-fluorophenyl)-1,3-oxazol-2-yl]propan-2-yl}-1-[(2S,4S)-2-hydroxy-4-{[(3S,4S)-3-hydroxy-3,4-dihydro-2H-1-benzopyran-4-yl]carbamoyl}-4-(1,3,4-oxadiazol-2-ylmethyl)butyl]-N-(2,2,2-trifluoroethyl)piperazine-2-carboxamide] | 10.19 | 10.62
Cc1nnc(C[C@H](C[C@H](O)CN2CCN(C(C)(C)c3ncc(-c4ccc(F)cc4)o3)C[C@H]2C(=O)NCC(F)(F)F)C(=O)N[C@H]2c3ccccc3OC[C@H]2O)o1 [(2S)-4-{2-[5-(4-fluorophenyl)-1,3-oxazol-2-yl]propan-2-yl}-1-[(2S,4S)-2-hydroxy-4-{[(3S,4S)-3-hydroxy-3,4-dihydro-2H-1-benzopyran-4-yl]carbamoyl}-4-[(5-methyl-1,3,4-oxadiazol-2-yl)methyl]butyl]-N-(2,2,2-trifluoroethyl)piperazine-2-carboxamide] | 9.72 | 10.57
CC(C)(c1ncc(-c2ccc(F)cc2)o1)N1CCN(C[C@@H](O)C[C@@H](Cc2nnc(-c3ccccc3)o2)C(=O)N[C@H]2c3ccccc3OC[C@H]2O)[C@H](C(=O)NCC(F)(F)F)C1 [(2S)-4-{2-[5-(4-fluorophenyl)-1,3-oxazol-2-yl]propan-2-yl}-1-[(2S,4S)-2-hydroxy-4-{[(3S,4S)-3-hydroxy-3,4-dihydro-2H-1-benzopyran-4-yl]carbamoyl}-4-[(5-phenyl-1,3,4-oxadiazol-2-yl)methyl]butyl]-N-(2,2,2-trifluoroethyl)piperazine-2-carboxamide] |  | 10.70
CCCc1nnc(C[C@H](C[C@H](O)CN2CCN(C(C)(C)c3ncc(-c4ccc(F)cc4)o3)C[C@H]2C(=O)NCC(F)(F)F)C(=O)N[C@H]2c3ccccc3OC[C@H]2O)o1 [(2S)-4-{2-[5-(4-fluorophenyl)-1,3-oxazol-2-yl]propan-2-yl}-1-[(2S,4S)-2-hydroxy-4-{[(3S,4S)-3-hydroxy-3,4-dihydro-2H-1-benzopyran-4-yl]carbamoyl}-4-[(5-propyl-1,3,4-oxadiazol-2-yl)methyl]butyl]-N-(2,2,2-trifluoroethyl)piperazine-2-carboxamide] | 9.72 | 10.80
O=C(N[C@H]1c2ccccc2OC[C@H]1O)[C@H](Cc1nnco1)C[C@H](O)CN1CCN(Cc2ccc(-c3ccc(Cl)cc3)o2)C[C@H]1C(=O)NCC(F)(F)F [(2S)-4-{[5-(4-chlorophenyl)furan-2-yl]methyl}-1-[(2S,4S)-2-hydroxy-4-{[(3S,4S)-3-hydroxy-3,4-dihydro-2H-1-benzopyran-4-yl]carbamoyl}-4-(1,3,4-oxadiazol-2-ylmethyl)butyl]-N-(2,2,2-trifluoroethyl)piperazine-2-carboxamide] | 10.00 | 10.82
Cc1nnc(C[C@H](C[C@H](O)CN2CCN(Cc3ccc(-c4ccc(Cl)cc4)o3)C[C@H]2C(=O)NCC(F)(F)F)C(=O)N[C@H]2c3ccccc3OC[C@H]2O)o1 [(2S)-4-{[5-(4-chlorophenyl)furan-2-yl]methyl}-1-[(2S,4S)-2-hydroxy-4-{[(3S,4S)-3-hydroxy-3,4-dihydro-2H-1-benzopyran-4-yl]carbamoyl}-4-[(5-methyl-1,3,4-oxadiazol-2-yl)methyl]butyl]-N-(2,2,2-trifluoroethyl)piperazine-2-carboxamide] |  | > 10.82
O=C(N[C@H]1c2ccccc2OC[C@H]1O)[C@H](Cc1nnc(-c2ccccc2)o1)C[C@H](O)CN1CCN(Cc2ccc(-c3ccc(Cl)cc3)o2)C[C@H]1C(=O)NCC(F)(F)F [(2S)-4-{[5-(4-chlorophenyl)furan-2-yl]methyl}-1-[(2S,4S)-2-hydroxy-4-{[(3S,4S)-3-hydroxy-3,4-dihydro-2H-1-benzopyran-4-yl]carbamoyl}-4-[(5-phenyl-1,3,4-oxadiazol-2-yl)methyl]butyl]-N-(2,2,2-trifluoroethyl)piperazine-2-carboxamide] |  | 10.72
CCCc1nnc(C[C@H](C[C@H](O)CN2CCN(Cc3ccc(-c4ccc(Cl)cc4)o3)C[C@H]2C(=O)NCC(F)(F)F)C(=O)N[C@H]2c3ccccc3OC[C@H]2O)o1 [(2S)-4-{[5-(4-chlorophenyl)furan-2-yl]methyl}-1-[(2S,4S)-2-hydroxy-4-{[(3S,4S)-3-hydroxy-3,4-dihydro-2H-1-benzopyran-4-yl]carbamoyl}-4-[(5-propyl-1,3,4-oxadiazol-2-yl)methyl]butyl]-N-(2,2,2-trifluoroethyl)piperazine-2-carboxamide] |  | > 10.82
